From patent US6420373B1, “9-N-Bicyclic nuceoside agents useful as selective inhibitors of proinflammatory cytokines” (Merrell Pharmaceuticals Inc., priority 1993, dated 2002)
Structures can show the parent of a compound that is named as a salt.

Tests used:
TNF-α = experiment: LPS-stimulated human monocyte-derived macrophage TNF-α inhibition assay; format: cell-based; details: 18 hours of culture
Protocol: Monocyte-derived macrophages stimulated with bacterial lipopolysaccharide (LPS) produce high levels of TNF-α (25.8+4.2 ηg/mL) during 18 hours of culture.

[1] = system: D-galactosamine animal model of septic shock; experiment: D-galactosamine animal model of septic shock (protection against lethal effects of LPS); format: in vivo; details: treated about 1 hour before i.p. challenge of D-galactosamine and LPS, by 18 hours after challenge, test compound 100 mg/kg i.p.

SMILES | IC50 (TNF-α; monocyte-derived macrophages from human peripheral blood, LPS-stimulated, dose response 100 μM-0.1 μM, read-out: IC50 for inhibiting TNF-α levels) | protection ([1]; mice) | mice killed [1] | inhibition at 50 µM (TNF-α; Homo sapiens, at 50 μM, LPS-stimulated monocyte-derived macrophages, read-out: inhibition of TNF-α levels)
Nc1ncnc2c1ncn2[C@H]1CC[C@H]2[C@@H]1CC[C@H]2O (racemic) [(±)-Exo-2-adenyl-endo-6-hydroxybicyclo[3,3,0]octane Dihydrochloride] | 143 nM | 100% | 0 out of 8 | 
CC(=O)CCCCn1c(=O)c2c(ncn2C)n(C)c1=O [Pentoxifylline, reference compound] |  |  |  | 73.5%
